From patent US20250188075A1, “SUBSTITUTED HETEROCYCLIC CSNK1 INHIBITORS” (The Broad Institute, Inc., priority 2022, published 2025)
Read-outs that look alike come from different tables or passages of the source.

Columns and labels:
human CSNK1A1 [1] = target: T1, human CSNK1A1 (Homo sapiens (Human), UniProt P48729); test: CSNK1A1 high ATP assay (ADP-Glo, 1 mM ATP); type: biochemical; settings: median, read-out: CSNK1A1 High ATP assay IC50 [mol/l] (median)
Procedure: CSNK1A1-inhibitory activity of compounds of the present invention in presence of 1 mM adenosine-tri-phosphate (ATP) was quantified employing the CSNK1A1-high-ATP-assay as described in the following paragraphs. In essence, the enzyme activity is measured by quantification of the adenosine-di-phosphate (ADP), which is generated as a co-product of the enzyme reaction, via the “ADP-Glo™ Kinase Assay” kit from the company Promega. This detection system works as follows: In a first step the ATP not consumed in the kinase reaction is quantitatively converted to CAMP employing an adenylate cyclase (“ADP-Glo-reagent”), then the adenylate cyclase is stopped and the ADP generated in the kinase reaction converted to ATP which generates in a luciferase-based reaction a glow-luminescence signal (“Kinase Detection Reagent”).
(§1) Recombinant fusion protein of N-terminal Glutathion-S-Transferase (GST) and full-length human CSNK1A1, expressed by baculovirus infected insect cells and purified via Glutathion affinity chromatography, was purchased from Life Technologies (product no. PV4174) and used as enzyme. As substrate for the kinase reaction the biotinylated peptide biotin-Ahx-KRRRAL-pS-VASLPGL (C-terminus in amide form) was used which can be purchased e.g. from the company Biosyntan (Berlin-Buch, Germany).
For the assay 50 nl of a 100 fold concentrated solution of the test compound in DMSO was pipetted into a white low volume 384-well microtiter plate (Greiner Bio-One, Frickenhausen, Germany), 2 μL of a solution of CSNK1A1 in aqueous assay buffer [50 mM HEPES pH 7.5, 10% (v/v) glycerol, 10 mM MgCl2, 50 mM NaCl, 1 mM dithiothreitol, 0.01% (w/v) bovine serum albumin, 0.01% (v/v) Triton X-100] were added and the mixture was incubated for 15 min at 22° C. to allow pre-binding of the test compounds to the enzyme before the start of the kinase reaction. Then the kinase reaction was started by the addition of 3 μL of a solution of ATP (1.67 mM=>final conc. in the 5 μL assay volume is 1 mM) and peptide substrate (167 μM=>final conc. in the 5 μL assay volume is 100 μM) in assay buffer and the resulting mixture was incubated for a reaction time of 30 min at 22° C. The concentration of CSNK1A1 was adjusted depending of the activity of the enzyme lot and was chosen appropriate to have the assay in the linear range, a typical concentration is about 0.4 ng/μL. The reaction was stopped by the addition of 2.5 μL of “ADP-Glo-reagent” (1:1.5 fold diluted with water) and the resulting mixture was incubated at 22° C. for 1 h to convert the ATP not consumed in the kinase reaction completely to CAMP. Subsequently 2.5 μL of the “kinase detection reagent” (1.2 fold more concentrated than recommended by the producer) were added, the resulting mixture was incubated at 22° C. for 1 h and then the luminescence measured with a suitable measurement instrument (e.g. Viewlux™ from Perkin-Elmer). The amount of emitted light was taken as a measure for the amount of ADP generated and thereby for the activity of the CSNK1A1.
(§2) The data were normalised (enzyme reaction without inhibitor=0% inhibition, all other assay components but no enzyme=100% inhibition).

[2] = Solubility assay (thermodynamic solubility); type: physicochemical; settings: aqueous buffer; for solubility thermodynamic at 24 h: thermodynamic from solid, mean; for Thermodynamic Solubility [mg/l] (mean) / Thermodynamic Solubility [μmol/L] (mean): 24 h
Procedure: Solubility of solid compound in aqueous buffer was determined by an equilibrium shake flask method. A saturated solution of drug in solvent (˜2 mg/ml solvent) was prepared and the solution was mixed for 24 h to ensure that equilibrium has been reached. The solution was centrifuged to remove the insoluble fraction and the concentration of the compound in solution was determined by HPLC-UV using a standard calibration curve (Kerns, E. H. et al., Solubility Methods in: Drug-like Properties: Concepts, Structure Design and Methods, p 276-286. Burlington, MA: Academic Press 2008).

human CSNK1A1 [3] = target: T1, human CSNK1A1; test: CSNK1A1 assay (ADP-Glo, 1 μM ATP); type: biochemical; settings: median, read-out: CSNK1A1 Low ATP IC50 [mol/l] (median)
Procedure: CSNK1A1-inhibitory activity of compounds of the present invention in presence of 1 μM adenosine-tri-phosphate (ATP) was quantified employing the CSNK1A1 assay as described in the following paragraphs. In essence, the enzyme activity is measured by quantification of the adenosine-di-phosphate (ADP), which is generated as a co-product of the enzyme reaction, via the “ADP-Glo™ Kinase Assay” kit from the company Promega. This detection system works as follows: In a first step the ATP not consumed in the kinase reaction is quantitatively converted to CAMP employing an adenylate cyclase (“ADP-Glo-reagent”), then the adenylate cyclase is stopped and the ADP generated in the kinase reaction converted to ATP which generates in a luciferase-based reaction a glow-luminescence signal (“Kinase Detection Reagent”).
as §1
For the assay 50 nl of a 100-fold concentrated solution of the test compound in DMSO was pipetted into a white 1536-well microtiter plate (Greiner Bio-One, Frickenhausen, Germany), 2 μL of a solution of CSNK1A1 in aqueous assay buffer [50 mM HEPES pH 7.5, 10% (v/v) glycerol, 10 mM MgCl2, 50 mM NaCl, 1 mM dithiothreitol, 0.01% (w/v) bovine serum albumin, 0.01% (v/v) Triton X-100] were added and the mixture was incubated for 15 min at 22° C. to allow pre-binding of the test compounds to the enzyme before the start of the kinase reaction. Then the kinase reaction was started by the addition of 3 μL of a solution of ATP (1.67 μM=>final conc. in the 5 μL assay volume is 1 μM) and peptide substrate (50 μM=>final conc. in the 5 μL assay volume is 30 μM) in assay buffer and the resulting mixture was incubated for a reaction time of 30 min at 22° C. The concentration of CSNK1A1 was adjusted depending of the activity of the enzyme lot and was chosen appropriate to have the assay in the linear range, a typical concentrations are about 0.0375 ng/μL. The reaction was stopped by the addition of 2.5 μL of “ADP-Glo-reagent” (1:1.5 fold diluted with water) and the resulting mixture was incubated at 22° C. for 1 h to convert the ATP not consumed in the kinase reaction completely to CAMP. Subsequently 2.5 μL of the “kinase detection reagent” (1.2 fold more concentrated than recommended by the producer) were added, the resulting mixture was incubated at 22° C. for 1 h and then the luminescence measured with a suitable measurement instrument (e.g. Viewlux™ from Perkin-Elmer). The amount of emitted light was taken as a measure for the amount of ADP generated and thereby for the activity of the CSNK1A1.
as §2

[4] = read-out: Thermodynamic Solubility [mg/l] (mean)
[5] = read-out: Thermodynamic Solubility [μmol/L] (mean)

T1 sequence (P48729 whole entry): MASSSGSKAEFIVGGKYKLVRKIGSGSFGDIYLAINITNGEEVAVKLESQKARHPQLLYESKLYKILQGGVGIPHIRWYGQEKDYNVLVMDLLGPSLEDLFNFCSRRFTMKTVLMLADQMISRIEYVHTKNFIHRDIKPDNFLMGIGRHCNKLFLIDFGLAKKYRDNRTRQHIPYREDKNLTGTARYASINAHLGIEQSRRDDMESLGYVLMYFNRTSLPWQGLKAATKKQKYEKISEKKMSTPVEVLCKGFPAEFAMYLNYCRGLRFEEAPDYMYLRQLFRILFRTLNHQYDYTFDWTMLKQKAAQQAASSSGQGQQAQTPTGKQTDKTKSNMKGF

Row | SMILES | IC50 (human CSNK1A1 [1]) | solubility thermodynamic at 24 h [2, 4] | solubility thermodynamic at 24 h [2, 5] | IC50 (human CSNK1A1 [3]) | Thermodynamic Solubility [mg/l] (mean) [2] | Thermodynamic Solubility [μmol/L] (mean) [2]
1 | Cc1nc(C)c(CC(=O)Nc2cc(-c3[nH]c4cccnc4c3-c3ccccn3)ccn2)s1 [Example 18, 2-(2,4-dimethylthiazol-5-yl)-N-[4-[3-(2-pyridyl)-^1H-pyrrolo[3,2-b]pyridin-2-yl]-2-pyridyl]acetamide] | 14.1 nM | 5.4 mg/L | 12.3 µmol/L | 1.46 nM | – | –
2 | O=C(Nc1cc(-c2[nH]c3ccc(F)nc3c2-c2ccccn2)ccn1)[C@@H](CC(F)F)c1ccc(F)cc1 [Example C2, reference compound] | 5.27 nM | – | – | 1.21 nM | 0.20 mg/L | 0.40 µmol/L
3 | O=C(Nc1cc(-c2[nH]c3c(OCC(F)F)ncnc3c2-c2ccccn2)ccn1)[C@@H](CC(F)F)c1ccc(F)cc1 [Example C3, reference compound] | 8.84 nM | – | – | 3.1 nM | <0.10 mg/L | <0.18 µmol/L
4 | O=C(Cc1cc(C2CC2)on1)Nc1cc(-c2[nH]c3cccnc3c2-c2ccccn2)ccn1 [Example 27, 2-(5-cyclopropylisoxazol-3-yl)-N-[4-[3-(2-pyridyl)-^1H-pyrrolo[3,2-b]pyridin-2-yl]-2-pyridyl]acetamide] | 244 nM | < 0.1 mg/L | < 0.23 µmol/L | 1.57 nM | – | –
5 | O=C(Cc1cnc2ccccn12)Nc1cc(-c2[nH]c3cccnc3c2-c2ccccn2)ccn1 [Example 1, 2-imidazo[1,2-a]pyridin-3-yl-N-[4-[3-(2-pyridyl)-^1H-pyrrolo[3,2-b]pyridin-2-yl]-2-pyridyl]acetamide] | 38.5 nM | 9.6 mg/L | 21.6 µmol/L | 5.89 nM | – | –
6 | O=C(Nc1cc(-c2[nH]c3nccnc3c2-c2ccccn2)ccn1)[C@@H](CC(F)F)c1ccc(F)cc1 [Example C1, reference compound] | 20.1 nM | – | – | 1.25 nM | 9.60 mg/L | 21.55 µmol/L

Further lines, results first:

Row | IC50 (human CSNK1A1 [1]) | solubility thermodynamic at 24 h [2, 4] | solubility thermodynamic at 24 h [2, 5] | IC50 (human CSNK1A1 [3]) | Thermodynamic Solubility [mg/l] (mean) [2] | Thermodynamic Solubility [μmol/L] (mean) [2] | SMILES
7 | 50.1 nM | 59.5 mg/L | 150 µmol/L | 1.42 nM | – | – | O=C(Cc1ccno1)Nc1cc(-c2[nH]c3cccnc3c2-c2ccccn2)ccn1 [Example 23, 2-isoxazol-5-yl-N-[4-[3-(2-pyridyl)-^1H-pyrrolo[3,2-b]pyridin-2-yl]-2-pyridyl]acetamide]
8 | 24.2 nM | 0.8 mg/L | 1.8 µmol/L | 1.07 nM | – | – | O=C(Cc1cc2ccccn2n1)Nc1cc(-c2[nH]c3cccnc3c2-c2ccccn2)ccn1 [Example 15, 2-pyrazolo[1,5-a]pyridin-2-yl-N-[4-[3-(2-pyridyl)-^1H-pyrrolo[3,2-b]pyridin-2-yl]-2-pyridyl]acetamide]
9 | 41.3 nM | 65.9 mg/L | 161 µmol/L | 1.69 nM | – | – | Cc1cc(CC(=O)Nc2cc(-c3[nH]c4cccnc4c3-c3ccccn3)ccn2)on1 [Example 13, 2-(3-methylisoxazol-5-yl)-N-[4-[3-(2-pyridyl)-^1H-pyrrolo[3,2-b]pyridin-2-yl]-2-pyridyl]acetamide]
10 | 70.8 nM | 2.5 mg/L | 5.9 µmol/L | 2.74 nM | – | – | Cc1cc(CC(=O)Nc2cc(-c3[nH]c4cccnc4c3-c3ccccn3)ccn2)nn1C [Example 16, 2-(1,5-dimethylpyrazol-3-yl)-N-[4-[3-(2-pyridyl)-^1H-pyrrolo[3,2-b]pyridin-2-yl]-2-pyridyl]acetamide]
11 | 589 nM | > 409 mg/L | > 1000 µmol/L | 4.12 nM | – | – | Cn1cnc(CC(=O)Nc2cc(-c3[nH]c4cccnc4c3-c3ccccn3)ccn2)c1 [Example 5, 2-(1-methylimidazol-4-yl)-N-[4-[3-(2-pyridyl)-^1H-pyrrolo[3,2-b]pyridin-2-yl]-2-pyridyl]acetamide]
12 | 90.8 nM | 6.1 mg/L | 14.9 µmol/L | 2.03 nM | – | – | Cc1cc(CC(=O)Nc2cc(-c3[nH]c4cccnc4c3-c3ccccn3)ccn2)no1 [Example 26, 2-(5-methylisoxazol-3-yl)-N-[4-[3-(2-pyridyl)-^1H-pyrrolo[3,2-b]pyridin-2-yl]-2-pyridyl]acetamide]
13 | 188 nM | < 0.1 mg/L | < 0.22 µmol/L | 2.21 nM | – | – | Cn1nc(CC(=O)Nc2cc(-c3[nH]c4cccnc4c3-c3ccccn3)ccn2)cc1C1CC1 [Example 29, 2-(5-cyclopropyl-1-methyl-pyrazol-3-yl)-N-[4-[3-(2-pyridyl)-^1H-pyrrolo[3,2-b]pyridin-2-yl]-2-pyridyl]acetamide]
14 | 86.6 nM | < 0.1 mg/L | < 0.21 µmol/L | 1.62 nM | – | – | Cn1nc(CC(=O)Nc2cc(-c3[nH]c4cccnc4c3-c3ccccn3)ccn2)cc1C(F)(F)F [Example 21, 2-[1-methyl-5-(trifluoromethyl)pyrazol-3-yl]-N-[4-[3-(2-pyridyl)-^1H-pyrrolo[3,2-b]pyridin-2-yl]-2-pyridyl]acetamide]
